# Measured values from patent publication US20240376085A1 (Janssen Pharmaceutica NV, priority 2021, published 2024).
# Tests used:
# [1] = test system: IL-17A-induced G-CSF production in human normal keratinocyte (NHK); assay: NHK assay: IL-17A-induced G-CSF production in normal human keratinocytes; type: cell-based; details: IL-17A 5 ng/mL, 24 h, average if tested more than once
# In short: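 IC50 derives from G-CSF in supernatants, quantified by HTRF from a standard curve, with CellTiter-Glo viability compared to DMSO control. Before a 24 h, 37°C culture of normal human keratinocytes at 3000–4000 cells/well, compound dilutions were preincubated 1 h at rt with human IL-17A (5 ng/mL final), with 0.2% DMSO and 5% FBS.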
# IL-17A : IL-17RA binding = molecular target: T1, IL-17A : IL-17RA binding (Homo sapiens, UniProt Q16552, K93Q); assay: IL-17A(FLAG-tagged):IL-17RA(His-tagged) binding disruption Eu-HTRF assay, Protocol 1; details: FLAG-IL-17A 2.5 nM at 2x final concentration; average if tested more than once
# T1 construct: Name: IL-17A-Flag
# T1 sequence (Q16552 with tags, fused parts or gaps K93Q): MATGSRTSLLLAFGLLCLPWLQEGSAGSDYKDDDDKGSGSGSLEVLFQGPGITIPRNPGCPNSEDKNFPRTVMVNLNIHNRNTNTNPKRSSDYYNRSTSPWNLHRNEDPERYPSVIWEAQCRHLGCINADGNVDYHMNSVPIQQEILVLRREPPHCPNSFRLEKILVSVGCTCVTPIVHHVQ
# In short: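 IC50 came from a one-site competition fit of the acceptor/donor (665/620 nm) HTRF ratio. His-tagged IL-17RA, Eu-anti-FLAG and D2-anti-His were added after a 1 h rt compound preincubation with FLAG-tagged IL-17A dimer in PBS/0.01% Triton X-100, followed by 2 h at rt before reading.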
SMILES,IC50 [1],IC50 (IL-17A : IL-17RA binding),"IC50 ([1]; Homo sapiens, Keratinocyte)"
"CC(CC(=O)N[C@H](C)c1ccc2nc([C@@H](NC(=O)c3ccnn3CC(F)(F)F)C3CCC(F)(F)CC3)[nH]c2c1)C(F)(F)F (single isomer, unassigned) [Example 137, N—((S)-(4,4-Difluorocyclohexyl)(6-((R)-1-((S*)-4,4,4-trifluoro-3-methylbutanamido)ethyl)-1H-benzo[d]imidazol-2-yl)methyl)-1-(2,2,2-trifluoroethyl)-1H-pyrazole-5-carboxamide]",50 to 100 nM,> 100 nM,
"CC(CC(=O)N[C@H](C)c1ccc2nc([C@@H](NC(=O)c3ccnn3CCC(F)(F)F)C3CCC(F)(F)CC3)[nH]c2c1)C(F)(F)F (single isomer, unassigned) [Example 138, N—((S)-(4,4-Difluorocyclohexyl)(6-((R)-1-((S*)-4,4,4-trifluoro-3-methylbutanamido)ethyl)-1H-benzo[d]imidazol-2-yl)methyl)-1-(3,3,3-trifluoropropyl)-1H-pyrazole-5-carboxamide]",50 to 100 nM,> 100 nM,
"CC(C)n1nccc1C(=O)N[C@H](c1nc2ccc([C@@H](C)NC(=O)CC(C)C(F)(F)F)cc2[nH]1)C1CCC(F)(F)CC1 (single isomer, unassigned) [Example 139, N—((S)-(4,4-Difluorocyclohexyl)(6-((R)-1-((S*)-4,4,4-trifluoro-3-methylbutanamido)ethyl)-1H-benzo[d]imidazol-2-yl)methyl)-1-isopropyl-1H-pyrazole-5-carboxamide]",< 50 nM,> 100 nM,
"CC(CC(=O)N[C@H](C)c1ccc2nc([C@@H](NC(=O)c3cc(F)ccc3F)C3CCC(F)(F)CC3)[nH]c2c1)C(F)(F)F (single isomer, unassigned) [Example 140, N—((S)-(4,4-Difluorocyclohexyl)(6-((R)-1-((S*)-4,4,4-trifluoro-3-methylbutanamido)ethyl)-1H-benzo[d]imidazol-2-yl)methyl)-2,5-difluorobenzamide]",> 100 nM,> 100 nM,
"CC(C)n1nccc1C(=O)NC(COC(C)(C)C(C)(F)F)c1nc2ccc([C@H](NC(=O)CC3CC(F)(F)C3)C3CC3)cc2[nH]1 (single isomer, unassigned) [Example 149, N—((R*)-1-(6-((R)-Cyclopropyl(2-(3,3-difluorocyclobutyl)acetamido)methyl)-1H-benzo[d]imidazol-2-yl)-2-((3,3-difluoro-2-methylbutan-2-yl)oxy)ethyl)-1-isopropyl-1H-pyrazole-5-carboxamide]",,> 100 nM,< 50 nM
"CC(OCC(NC(=O)c1nonc1C1CC1)c1nc2ccc([C@H](NC(=O)CC3CC(F)(F)C3)C3CC3)cc2[nH]1)C(F)(F)F (single isomer, unassigned) [Example 153, 4-Cyclopropyl-N-((1R*)-1-(6-((R)-cyclopropyl(2-(3,3-difluorocyclobutyl)acetamido)methyl)-1H-benzo[d]imidazol-2-yl)-2-((1,1,1-trifluoropropan-2-yl)oxy)ethyl)-1,2,5-oxadiazole-3-carboxamide]",,< 50 nM,> 100 nM
"C[C@H](OCC(NC(=O)c1nonc1C1CC1)c1nc2ccc([C@H](NC(=O)CC3CC(F)(F)C3)C3CC3)cc2[nH]1)C(F)(F)F (single isomer, unassigned) [Example 154, 4-Cyclopropyl-N—((R*)-1-(6-((R)-cyclopropyl(2-(3,3-difluorocyclobutyl)acetamido)methyl)-1H-benzo[d]imidazol-2-yl)-2-(((S)-1,1,1-trifluoropropan-2-yl)oxy)ethyl)-1,2,5-oxadiazole-3-carboxamide]",,< 50 nM,50 to 100 nM
"CC(C)n1nccc1C(=O)NC(CO[C@H](C)C(F)(F)F)c1nc2ccc([C@H](NC(=O)CC3CC(F)(F)C3)C3CC3)cc2[nH]1 (single isomer, unassigned) [Example 157, N—((R*)-1-(6-((R)-Cyclopropyl(2-(3,3-difluorocyclobutyl)acetamido)methyl)-1H-benzo[d]imidazol-2-yl)-2-(((R)-1,1,1-trifluoropropan-2-yl)oxy)ethyl)-1-isopropyl-1H-pyrazole-5-carboxamide]",,< 50 nM,50 to 100 nM
"CC(C)n1nccc1C(=O)NC(COC(C)(C)C(F)(F)F)c1nc2ccc([C@H](NC(=O)CC3CC(F)(F)C3)C3CC3)cc2[nH]1 (single isomer, unassigned) [Example 162, N—((S*)-1-(6-((R)-Cyclopropyl(2-(3,3-difluorocyclobutyl)acetamido)methyl)-1H-benzo[d]imidazol-2-yl)-2-((1,1,1-trifluoro-2-methylpropan-2-yl)oxy)ethyl)-1-isopropyl-1H-pyrazole-5-carboxamide]",,> 100 nM,> 100 nM
"CC(C)(OCC(NC(=O)c1nonc1C1CC1)c1nc2ccc([C@H](NC(=O)CC3CC(F)(F)C3)C3CC3)cc2[nH]1)C(F)(F)F (single isomer, unassigned) [Example 163, 4-Cyclopropyl-N—((S*)-1-(6-((R)-cyclopropyl(2-(3,3-difluorocyclobutyl)acetamido)methyl)-1H-benzo[d]imidazol-2-yl)-2-((1,1,1-trifluoro-2-methylpropan-2-yl)oxy)ethyl)-1,2,5-oxadiazole-3-carboxamide]",,> 100 nM,> 100 nM
"COCC(NC(=O)CC1CC(F)(F)C1)c1ccc2[nH]c([C@H](COC(C)(C)C(F)(F)F)NC(=O)c3nonc3C3CC3)nc2c1 (single isomer, unassigned) [Example 165, 4-Cyclopropyl-N—((R)-1-(5-((S*)-1-(2-(3,3-difluorocyclobutyl)acetamido)-2-methoxyethyl)-1H-benzo[d]imidazol-2-yl)-2-((1,1,1-trifluoro-2-methylpropan-2-yl)oxy)ethyl)-1,2,5-oxadiazole-3-carboxamide]",,> 100 nM,> 100 nM
"CC(C)n1nccc1C(=O)N[C@H](c1nc2ccc([C@H](NC(=O)CC3CC(F)(F)C3)C3CC3)cc2[nH]1)C1CC(F)(F)CCO1 (single isomer, unassigned) [Example 172, N—((R)-(6-((R)-Cyclopropyl(2-(3,3-difluorocyclobutyl)acetamido)methyl)-1H-benzo[d]imidazol-2-yl)((S*)-4,4-difluorotetrahydro-2H-pyran-2-yl)methyl)-1-isopropyl-1H-pyrazole-5-carboxamide]",,> 100 nM,< 50 nM
"Cc1nonc1C(=O)N[C@H](c1nc2ccc([C@H](NC(=O)CC3CC(F)(F)C3)C3CC3)cc2[nH]1)C1CCOC(C)(C)C1 (single isomer, unassigned) [Example 173, N—((S)-(6-((R)-Cyclopropyl(2-(3,3-difluorocyclobutyl)acetamido)methyl)-1H-benzo[d]imidazol-2-yl)((S*)-2,2-dimethyltetrahydro-2H-pyran-4-yl)methyl)-4-methyl-1,2,5-oxadiazole-3-carboxamide]",,> 100 nM,> 100 nM
"Cc1nonc1C(=O)N[C@H](c1nc2ccc([C@H](NC(=O)CC3CC(F)(F)C3)C3CC3)cc2[nH]1)C1CCOC(C)(C)C1 (single isomer, unassigned) [Example 174, N—((S)-(6-((R)-Cyclopropyl(2-(3,3-difluorocyclobutyl)acetamido)methyl)-1H-benzo[d]imidazol-2-yl)((R*)-2,2-dimethyltetrahydro-2H-pyran-4-yl)methyl)-4-methyl-1,2,5-oxadiazole-3-carboxamide]",50 to 100 nM,> 100 nM,
